One test deals with M. tb mc^26230-Ag85C. The experiment in a line: microbe, parasite or virus in culture. In kind it is cell-based, Mycobacterium tuberculosis.
In the next test the test system is M. tb mc^26230-TesA. Nature of the test: microbe, parasite or virus in culture. In kind it is cell-based, Mycobacterium tuberculosis.
The test system of the next test is M. tb mc^26230-LipH. The experiment in a line: microbe, parasite or virus in culture. Format: cell-based, Mycobacterium tuberculosis. Conditions: for MIC50: REMA.
The subject of a further test is M. tb mc^26230-HsaD. The experiment in a line: microbe, parasite or virus in culture. The settings on record: for MIC50: REMA. Format: cell-based, Mycobacterium tuberculosis.
The next test relates to M. tb mc^26230-Ag85A. The experiment in a line: microbe, parasite or virus in culture. Format: cell-based, Mycobacterium tuberculosis.
A further test relates to M. tb mc^26230-Rv0183. The experiment in a line: microbe, parasite or virus in culture. In kind it is cell-based, Mycobacterium tuberculosis.
The subject of the next test is M. tb mc^26230 WT. Nature of the test: microbe, parasite or virus in culture. Format: cell-based.
Test [1] concerns M. tb mc^26230-empty vector. Nature of the test: REMA, empty vector strain. Format: cell-based, Mycobacterium tuberculosis.
[2] abbreviates: Mycobacterium tuberculosis, REMA.

Values after ≈ are worked out from the molar mass of the structure shown. Like-named read-outs stand apart in the source and are kept apart here.

Consider `CCCCCCCCCCCCCCCCOP1(=O)OCCC(C(=O)OC)=C(C)O1` (stereo not drawn) [CyC 17], for which the “MIC50 ratio mutant/WT” value is reported as 0.98 in the test with M. tb mc^26230-Ag85C; 0.95 with M. tb mc^26230-TesA; 1.31 in the test on M. tb mc^26230-LipH (M. tb mc^26230-LipH); 2.18 with M. tb mc^26230-HsaD (M. tb mc^26230-HsaD); 1.00 in the test with M. tb mc^26230-Ag85A; 0.80 in the test with M. tb mc^26230-Rv0183 (M. tb mc^26230-Rv0183). Further, the “MIC50 ratio mutant/WT” value amounted to 1.00 in the test on M. tb mc^26230 WT and 0.95 in test [1]. In addition, the MIC50 against M. tb mc^26230-Ag85C (setting [2]) was 0.54 ± 0.009 µM (≈ 0.241 µg/mL); with M. tb mc^26230-TesA (setting [2]), 0.52 ± 0.012 µM (≈ 0.232 µg/mL); with M. tb mc^26230-LipH (M. tb mc^26230-LipH), 0.72 ± 0.020 µM (≈ 0.322 µg/mL); in the test with M. tb mc^26230-LipH (Mycobacterium tuberculosis, M. tb mc^26230-LipH, read-out: MIC50) it was 0.72 ± 0.02 µM (≈ 0.322 µg/mL); with M. tb mc^26230-HsaD (M. tb mc^26230-HsaD) it was 1.20 ± 0.026 µM (≈ 0.536 µg/mL); with M. tb mc^26230-HsaD (Mycobacterium tuberculosis, M. tb mc^26230-HsaD, read-out: MIC50), 1.2 ± 0.026 µM (≈ 0.536 µg/mL). Moreover, the MIC50 is 0.55 ± 0.014 µM (≈ 0.246 µg/mL) in the test with M. tb mc^26230-Ag85A (setting [2]) and 0.44 ± 0.013 µM (≈ 0.196 µg/mL) in the test on M. tb mc^26230-Rv0183 (Mycobacterium tuberculosis, M. tb mc^26230-Rv0183, REMA). Moreover, the “increase in the MIC50 value compared to WT strain” value in the test on M. tb mc^26230-LipH is listed as “around 1.3 fold”. Besides, the “increase in MIC50 value compared to WT strain” value with M. tb mc^26230-HsaD amounted to 2.2 fold.

The record behind these values is article PMC5603573, “Cyclipostins and Cyclophostin analogs as promising compounds in the fight against tuberculosis” (Scientific Reports, 2017).
